Values after ≈ are worked out from the molar mass of the structure shown. No end group written: not given here.
Key:
[1] = test system: Escherichia coli ATCC 25922; assay: Antimicrobial assay I, modified protocol (tryptic soy broth), MBC; conditions: minimum bactericidal concentration, Table 4
[2] = test system: Pseudomonas aeruginosa ATCC 27853; assay: as above; conditions: minimum bactericidal concentration, Table 4
[3] = test system: Stapholococcus aureus ATCC 25923; assay: as above; conditions: minimum bactericidal concentration, Table 4
Procedure: (§1) The preparation of all media, stock solutions, and dilutions took place in a laminar flow hood to prevent contamination. Bacterial cells were freshly grown on antibiotic medium 2 agar slants (pH 7.0 at 25° C.). Bacteria were suspended and diluted in antibiotic medium 3 to about 10^4 cfu/ml and used as the inoculum. Sample solutions (100 μl/well) were added to plates according to the plate layout. Inoculum (100 μl/well) was added to achieve a final concentration of 5×10^3 cfu/ml. Negative controls received 100 μl saline and 100 μl growth medium. Positive controls received 100 μl saline and 100 μl inoculum. Bacterial plates were incubated at 37° C. for 24 hours.
(§2) However, the data for Table 4 were obtained with a modified protocol wherein the medium was tryptic soy broth, inocolum strength was approximately 10^4 CFU per ml, and values determined were minimum bactericidal concentrations (MBC) or minimum fungicidal concentrations (MFC).
(§3) MBC or MFC values are in μg/mL. E. coli is Escherichia coli ATCC accession number 25922; P. aerug is Pseudomonas aeruginosa ATCC accession number 27853, S. aur. is Stapholococcus aureus ATCC accession number 25923; Candida is Candida albicans ATCC accession number 10231.

[4] = test system: Candida albicans ATCC 10231; assay: Antimicrobial assay I, modified protocol (tryptic soy broth), MFC; conditions: minimum fungicidal concentration, Table 4
Procedure: as §1, §2, §3

| Compound | MBC E. coli A.25922 [1] | MBC P. aerug A.27853 [2] | MBC S. aur A.25923 [3] | MFC Candida A.10231 [4] |
| --- | --- | --- | --- | --- |
| CC(C)C[C@H](NC(=O)[C@H](CC(C)C)NC(=O)[C@H](CCCCN)NC(=O)[C@H](C)NC(=O)[C@H](CC(C)C)NC(=O)[C@H](C)NC(=O)[C@H](CCCCN)NC(=O)[C@H](CCCCN)NC(=O)[C@H](C)NC(=O)[C@H](CC(C)C)NC(=O)[C@H](CCCCN)NC(=O)[C@H](C)NC(=O)[C@@H](N)CCCCN)C(N)=O [compound 149] | 150 µg/mL (≈ 108 µM) | >250 µg/mL | >250 µg/mL | 100 µg/mL (≈ 71.7 µM) |
| CC(C)C[C@H](NC(=O)[C@H](C)NC(=O)[C@H](CC(C)C)NC(=O)[C@H](CCCCN)NC(=O)[C@H](C)NC(=O)[C@H](CC(C)C)NC(=O)[C@H](CCCCN)NC(=O)[C@H](CCCCN)NC(=O)[C@H](C)NC(=O)[C@H](CC(C)C)NC(=O)[C@H](CCCCN)NC(=O)[C@H](CCCCN)NC(=O)[C@H](C)NC(=O)[C@@H](N)Cc1ccccc1)C(N)=O [compound 45] | 30 µg/mL (≈ 19.5 µM) | 40 µg/mL (≈ 25.9 µM) | 80 µg/mL (≈ 51.9 µM) | >50 µg/mL |
| FAKLLAKLAKKFAL-NH2 [compound 120] | INACT | INACT | INACT | INACT |
| FALKALKK-NH2 [compound 145] | INACT | INACT | INACT | 100 µg/mL |
| CC(C)C[C@H](NC(=O)[C@H](CC(C)C)NC(=O)[C@H](CCCCN)NC(=O)[C@H](CCCCN)NC(=O)[C@H](C)NC(=O)[C@H](CC(C)C)NC(=O)[C@H](CCCCN)NC(=O)[C@H](CCCCN)NC(=O)[C@H](C)NC(=O)[C@@H](N)Cc1ccccc1)C(N)=O [compound 59] | >50 µg/mL | >50 µg/mL | >50 µg/mL | >50 µg/mL |
| CC(C)C[C@H](NC(=O)[C@H](CCCCN)NC(=O)[C@H](CC(C)C)NC(=O)[C@H](C)NC(=O)[C@H](CCCCN)NC(=O)[C@H](C)NC(=O)[C@H](CC(C)C)NC(=O)[C@H](CC(C)C)NC(=O)[C@H](CCCCN)NC(=O)[C@H](CCCCN)NC(=O)[C@H](C)NC(=O)[C@@H](N)Cc1ccccc1)C(N)=O [compound 110] | 8 µg/mL (≈ 5.96 µM) | >50 µg/mL | >50 µg/mL | >50 µg/mL |
| CC(C)C[C@H](NC(=O)[C@H](CCCCN)NC(=O)[C@H](CC(C)C)NC(=O)[C@H](CC(C)C)NC(=O)[C@H](C)NC(=O)[C@@H](N)Cc1ccccc1)C(N)=O [compound 168] | 75 µg/mL (≈ 107 µM) | 100 µg/mL (≈ 142 µM) | >250 µg/mL | 150 µg/mL (≈ 213 µM) |
| FAKLWAKLAFGKGIGKVGKKLL-NH2 [compound 135] | INACT | 40 µg/mL | INACT | 25 µg/mL |
| FAKLLFKALKKAL-NH2 [compound 112] | 30 µg/mL | INACT | INACT | INACT |
| CC(C)C[C@H](NC(=O)[C@H](CCCCN)NC(=O)[C@H](CC(C)C)NC(=O)[C@H](CCCCN)NC(=O)[C@H](CC(C)C)NC(=O)[C@H](C)NC(=O)[C@H](CCCCN)NC(=O)[C@H](C)NC(=O)[C@H](CC(C)C)NC(=O)[C@H](CC(C)C)NC(=O)[C@H](CCCCN)NC(=O)[C@H](C)NC(=O)[C@@H](N)Cc1ccccc1)C(N)=O [compound 101] | 300 µg/mL (≈ 206 µM) | >50 µg/mL | >50 µg/mL | 40 µg/mL (≈ 27.5 µM) |
| FAKAIAKIAFGKGIGKVGKKLL-NH2 [compound 134] | INACT | INACT | INACT | INACT |
| CC(C)C[C@H](NC(=O)[C@H](CC(C)C)NC(=O)[C@H](CCCCN)NC(=O)[C@H](CCCCN)NC(=O)[C@H](C)NC(=O)[C@H](C)NC(=O)[C@H](CC(C)C)NC(=O)[C@H](CCCCN)NC(=O)[C@H](CC(C)C)NC(=O)[C@H](CC(C)C)NC(=O)[C@H](CCCCN)NC(=O)[C@H](C)NC(=O)[C@@H](N)Cc1ccccc1)C(N)=O [compound 56] | 50 µg/mL (≈ 34.3 µM) | 10 µg/mL (≈ 6.87 µM) | 55 µg/mL (≈ 37.8 µM) | 30 µg/mL (≈ 20.6 µM) |
| FAKGVGKVGKKAL-NH2 [compound 137] | INACT | INACT | INACT | INACT |
| CC(C)C[C@H](NC(=O)[C@H](C)NC(=O)[C@H](C)NC(=O)[C@H](CCCCN)NC(=O)[C@H](C)NC(=O)[C@H](CC(C)C)NC(=O)[C@H](CCCCN)NC(=O)[C@H](CCCCN)NC(=O)[C@H](C)NC(=O)[C@H](CC(C)C)NC(=O)[C@H](CCCCN)NC(=O)[C@H](CCCCN)NC(=O)[C@H](C)NC(=O)[C@@H](N)Cc1ccccc1)C(N)=O [compound 76] | 40 µg/mL (≈ 26.7 µM) | >55 µg/mL | >55 µg/mL | >50 µg/mL |
| CC[C@H](C)[C@H](NC(=O)[C@H](CCCCN)NC(=O)[C@H](CCCCN)NC(=O)[C@H](Cc1ccccc1)NC(=O)[C@H](CC(C)C)NC(=O)[C@H](CCCCN)NC(=O)[C@H](Cc1c[nH]c2ccccc12)NC(=O)[C@@H](N)CCCCN)C(=O)NCC(=O)N[C@@H](C)C(=O)N[C@H](C(=O)N[C@@H](CC(C)C)C(=O)N[C@@H](CCCCN)C(=O)N[C@H](C(=O)N[C@@H](CC(C)C)C(N)=O)C(C)C)C(C)C [compound 53] | 15 µg/mL (≈ 8.47 µM) | 15 µg/mL (≈ 8.47 µM) | 10 µg/mL (≈ 5.65 µM) | 30 µg/mL (≈ 16.9 µM) |
| FAKIIAKIAKKI-NH2 [compound 143] | INACT | INACT | INACT | INACT |
| CC(C)C[C@H](NC(=O)[C@H](C)NC(=O)[C@H](CCCCN)NC(=O)[C@H](C)NC(=O)[C@H](CC(C)C)NC(=O)[C@H](CCCCN)NC(=O)[C@H](C)NC(=O)[C@H](CC(C)C)NC(=O)[C@H](CCCCN)NC(=O)[C@H](C)NC(=O)[C@H](CC(C)C)NC(=O)[C@H](CCCCN)NC(=O)[C@H](CCCCN)NC(=O)[C@H](C)NC(=O)[C@H](CC(C)C)NC(=O)[C@@H](N)CCCCN)C(N)=O [compound 159] | 10 µg/mL (≈ 5.86 µM) | 10 µg/mL (≈ 5.86 µM) | >250 µg/mL | 50 µg/mL (≈ 29.3 µM) |
| CC(C)C[C@H](NC(=O)[C@H](CCCCN)NC(=O)[C@H](CC(C)C)NC(=O)[C@H](Cc1c[nH]c2ccccc12)NC(=O)[C@H](CCCCN)NC(=O)[C@H](CCCCN)NC(=O)[C@H](C)NC(=O)[C@H](Cc1c[nH]c2ccccc12)NC(=O)[C@H](CCCCN)NC(=O)[C@H](CCCCN)NC(=O)[C@H](Cc1c[nH]c2ccccc12)NC(=O)[C@H](CC(C)C)NC(=O)[C@@H](N)CCCCN)C(=O)N[C@@H](Cc1c[nH]c2ccccc12)C(=O)N[C@@H](CCCCN)C(=O)N[C@@H](C)C(=O)O [compound 164] | 25 µg/mL (≈ 11.7 µM) | 25 µg/mL (≈ 11.7 µM) | 25 µg/mL (≈ 11.7 µM) | 25 µg/mL (≈ 11.7 µM) |
